Earlier results in patent US4707498A, “Fluorinated diaminoalkyne derivatives” (Merrell Dow Pharmaceuticals Inc., priority 1986, dated 1987).

Test system: tumor
Details: MGBG intravenously once or twice week

CC(C=NNC(=N)N)=NNC(=N)N [MGBG, methylglyoxal bis(guanylhydrazone)]
complete disappearance of the disease (number of treated patients) (65 treated patients): two of the 65 | regression of the tumor (patients in advanced stages of carcinoma, lymphoma, hepatoma, melanoma, leukemia or sarcoma): measurable regression of the tumor in many of the patients treated
